Experimental data taken from patent US20240190849A1, “AMINOPYRIMIDINE COMPOUNDS AND METHODS OF THEIR USE” (TYRA BIOSCIENCES, INC., priority 2021, published 2024).

Experiments:
[1] = molecular target: T1, FGFR2 (Homo sapiens, UniProt P21802); assay: Kinase binding assay (kinase-tagged T7 phage, affinity beads, qPCR readout), FGFR2; details: FGFR binding data
T1 construct: made in house; host or cells: E. coli derived from BL21, infected with T7 phage
In short: (§1)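 Dissociation constants were measured by bead-capture competition at 0.9% DMSO, room temperature, 1 hour. qPCR of eluted kinase supplied the signal.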

[2] = molecular target: T2, FGFR3 (V555M) (Homo sapiens, UniProt P22607, V555M); assay: Kinase binding assay (kinase-tagged T7 phage, affinity beads, qPCR readout), FGFR3 (V555M); details: FGFR binding data
T2 construct: made in house; host or cells: E. coli derived from BL21, infected with T7 phage
T2 sequence (P22607 23-806 V555M): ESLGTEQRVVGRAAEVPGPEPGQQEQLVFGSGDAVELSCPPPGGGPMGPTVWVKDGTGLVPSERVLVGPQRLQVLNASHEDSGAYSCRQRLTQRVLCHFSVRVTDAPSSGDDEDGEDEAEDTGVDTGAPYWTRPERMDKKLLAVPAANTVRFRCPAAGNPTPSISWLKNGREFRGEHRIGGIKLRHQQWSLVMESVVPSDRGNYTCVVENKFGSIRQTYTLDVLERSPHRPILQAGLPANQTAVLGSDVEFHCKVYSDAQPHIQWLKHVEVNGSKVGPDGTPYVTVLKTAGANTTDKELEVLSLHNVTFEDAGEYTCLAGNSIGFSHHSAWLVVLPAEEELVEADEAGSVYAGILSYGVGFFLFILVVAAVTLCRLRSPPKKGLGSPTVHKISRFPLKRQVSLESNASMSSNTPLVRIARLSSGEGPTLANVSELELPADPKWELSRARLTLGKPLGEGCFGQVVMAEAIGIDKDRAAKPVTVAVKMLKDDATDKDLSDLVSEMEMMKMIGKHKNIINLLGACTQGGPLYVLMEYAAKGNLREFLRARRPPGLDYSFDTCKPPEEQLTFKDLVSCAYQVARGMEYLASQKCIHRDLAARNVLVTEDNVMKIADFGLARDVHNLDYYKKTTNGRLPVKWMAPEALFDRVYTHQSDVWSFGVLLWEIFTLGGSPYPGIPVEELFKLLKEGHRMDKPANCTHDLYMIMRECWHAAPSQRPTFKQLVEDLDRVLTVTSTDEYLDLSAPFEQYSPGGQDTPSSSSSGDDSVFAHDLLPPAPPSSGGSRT
In short: as §1

[3] = molecular target: T3, FGFR3 (Homo sapiens, UniProt P22607); assay: Kinase binding assay (kinase-tagged T7 phage, affinity beads, qPCR readout), FGFR3; details: FGFR binding data
T3 construct: made in house; host or cells: E. coli derived from BL21, infected with T7 phage
T3 sequence (P22607 23-806): as the sequence (P22607 23-806 V555M) above, with M533V counted along it
In short: as §1

[4] = molecular target: T4, FGFR1 (Homo sapiens, UniProt P11362); assay: Kinase binding assay (kinase-tagged T7 phage, affinity beads, qPCR readout), FGFR1; details: FGFR binding data
T4 construct: made in house; host or cells: E. coli derived from BL21, infected with T7 phage
T4 sequence (P11362 22-822): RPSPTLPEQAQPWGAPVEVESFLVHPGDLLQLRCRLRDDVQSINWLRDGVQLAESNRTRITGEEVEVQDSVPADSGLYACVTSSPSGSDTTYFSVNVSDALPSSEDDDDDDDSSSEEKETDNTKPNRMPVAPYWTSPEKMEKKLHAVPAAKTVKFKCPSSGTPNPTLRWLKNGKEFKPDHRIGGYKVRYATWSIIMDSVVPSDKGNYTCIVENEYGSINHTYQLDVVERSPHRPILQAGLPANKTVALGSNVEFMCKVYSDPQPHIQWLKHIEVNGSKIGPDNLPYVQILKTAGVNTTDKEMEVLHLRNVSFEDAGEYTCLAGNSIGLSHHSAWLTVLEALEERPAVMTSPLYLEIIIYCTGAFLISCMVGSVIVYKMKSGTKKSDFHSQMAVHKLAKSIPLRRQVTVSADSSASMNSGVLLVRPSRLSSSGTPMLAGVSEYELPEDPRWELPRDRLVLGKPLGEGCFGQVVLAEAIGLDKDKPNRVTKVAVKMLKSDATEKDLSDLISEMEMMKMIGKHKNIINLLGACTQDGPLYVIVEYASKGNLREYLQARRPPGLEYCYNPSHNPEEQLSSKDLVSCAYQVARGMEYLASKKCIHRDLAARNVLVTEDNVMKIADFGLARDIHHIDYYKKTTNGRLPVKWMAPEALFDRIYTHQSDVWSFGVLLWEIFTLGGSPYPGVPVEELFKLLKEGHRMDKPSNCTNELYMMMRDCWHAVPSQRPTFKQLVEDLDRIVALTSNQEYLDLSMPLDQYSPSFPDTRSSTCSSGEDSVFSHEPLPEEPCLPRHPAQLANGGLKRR
In short: as §1

[5] = tested on: SNU-16 (Gastric Carcinoma), FGFR2 amplification; assay: Cancer cell viability assay (Cell Titer-Glo), SNU-16; format: cell-based; details: Homo sapiens, SNU-16 cells, 72 hours, read-out: SNU16 FGFR2 (IC50 nM)
Text: RT112/84, UM-UC-14, SNU-16 and KG-1 Cancer Cell Line Cell Viability Assays
To detect the change of intracellular ATP by Cell Titer-Glo@ and to evaluate the inhibitory effect of the compounds on cancer cell lines by determining the in vitro IC50 value of the compounds.
Cell Titer-Glo@ 2.0 Luminescent cell viability assay reagent was purchased from Promega (Madison, WI). RT112/84, SNU-16, and KG-1 cell lines were purchased from American Type Culture Collection (Manassas, VA). UM-UC-14 cell line was purchased from Sigma (St. Louis, MO). RT112/84, UM-UC-14, SNU-16, and KG-1 cells were cultured in RPMI1640 media supplemented with 10% fetal bovine serum. Cultures were maintained at 37° C. in a humidified atmosphere of 5% CO2 and 95% air.
Cell Viability Assay Procedure: Cells were plated in 96-well clear bottom/white plates (Corning #3903) at 10,000 cells/well in 100 μl of media, incubated overnight. The next day, test compound DMSO stock solutions were made at 10 mM and 2 μM final concentration. Compounds were then added to cells in a 9-dose, […] dilution series starting at 30 μM with an HP 300e Digital Dispenser (each dose was applied in triplicate). DMSO was backfilled to each well up to 301 nL total volume of test compound+DMSO, and a total of 301 nL DMSO was added to a control/no test compound well in triplicate. The cells in cell culture plates were incubated with the compounds at 37° C. and 5% CO2 for 72 hours. Then 50 μl of Cell Titer Glo 2.0 reagent was added to each well of the cell culture plates. The contents were covered from light and mixed on an orbital shaker at room temperature for 10 min. Luminescence was recorded by a Synergy H1 Microplate Reader (Biotek, Winooski, VT). Cells were assessed as a percentage of DMSO only treated control cells. Curves were plotted and IC50 values were calculated using the GraphPad Prism 8 program based on a sigmoidal dose-response equation (4 parameter).

T1 sequence (P21802 22-821): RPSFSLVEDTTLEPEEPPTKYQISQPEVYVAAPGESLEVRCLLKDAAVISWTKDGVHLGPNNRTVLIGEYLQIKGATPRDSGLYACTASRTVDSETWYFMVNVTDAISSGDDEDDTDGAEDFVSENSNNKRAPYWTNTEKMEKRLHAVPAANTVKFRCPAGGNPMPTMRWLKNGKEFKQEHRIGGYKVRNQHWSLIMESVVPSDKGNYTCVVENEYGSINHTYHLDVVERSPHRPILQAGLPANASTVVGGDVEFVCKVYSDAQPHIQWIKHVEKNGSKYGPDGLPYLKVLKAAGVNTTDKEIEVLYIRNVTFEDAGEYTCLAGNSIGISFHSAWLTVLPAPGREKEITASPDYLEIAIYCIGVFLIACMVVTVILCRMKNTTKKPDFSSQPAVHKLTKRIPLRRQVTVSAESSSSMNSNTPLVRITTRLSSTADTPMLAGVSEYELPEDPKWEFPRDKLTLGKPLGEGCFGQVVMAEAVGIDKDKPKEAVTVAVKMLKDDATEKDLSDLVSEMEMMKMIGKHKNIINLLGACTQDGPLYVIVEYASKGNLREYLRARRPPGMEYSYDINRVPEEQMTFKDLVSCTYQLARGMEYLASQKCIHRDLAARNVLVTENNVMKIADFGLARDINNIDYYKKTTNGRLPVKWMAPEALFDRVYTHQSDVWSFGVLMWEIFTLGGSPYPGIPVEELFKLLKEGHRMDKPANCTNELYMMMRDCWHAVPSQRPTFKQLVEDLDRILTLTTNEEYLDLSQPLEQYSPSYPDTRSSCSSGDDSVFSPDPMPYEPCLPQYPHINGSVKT

SMILES	Kd [1]	Kd [2]	Kd [3]	Kd [4]	IC50 [5]
C=CC(=O)Nc1cnc2c(c1)c(C)cn2-c1nc(Nc2cc(C)n(C(=O)OC(C)(C)C)n2)ncc1C [Example 124, tert-butyl 5-methyl-3-[[5-methyl-4-[3-methyl-5-(prop-2-enoylamino)pyrrolo[2,3-b]pyridin-1-yl]pyrimidin-2-yl]amino]pyrazole-1-carboxylate]	100 to 250 nM	0.1 to 100 nM	0.1 to 100 nM	100 to 250 nM	0.1 to 100 nM
C=CC(=O)Nc1ccc2c(-c3ccnc(Nc4cnn(C)c4)n3)cn(C)c2c1 [Example 201, N-[3-[2-[(1-methylpyrazol-4-yl)amino]pyrimidin-4-yl]-1-methyl-indol-6-yl]prop-2-enamide]	0.1 to 100 nM	0.1 to 100 nM	0.1 to 100 nM	0.1 to 100 nM	0.1 to 100 nM
C=CC(=O)Nc1ccc2c(c1)c(C)cn2-c1nc(Nc2cnn(C3CCOCC3)c2)ncc1F [Example 208, N-[1-[5-fluoro-2-[(1-tetrahydropyran-4-ylpyrazol-4-yl)amino]pyrimidin-4-yl]-3-methyl-indol-5-yl]prop-2-enamide]	0.1 to 100 nM	0.1 to 100 nM	0.1 to 100 nM	0.1 to 100 nM	0.1 to 100 nM
C=CC(=O)Nc1ccc2c(c1)c(C)cn2-c1nc(Nc2cnc(C)nc2C)ncc1F [Example 150, N-[1-[2-[(2,4-dimethylpyrimidin-5-yl)amino]-5-fluoro-pyrimidin-4-yl]-3-methyl-indol-5-yl]prop-2-enamide]	0.1 to 100 nM	100 to 250 nM	0.1 to 100 nM	250 to 1000 nM	0.1 to 100 nM
Cc1cn(-c2nc(Nc3cnn(CCO)c3)ncc2F)c2ccc(NC(=O)/C=C/CN(C)C)cc12 [Example 144, (E)-4-(dimethylamino)-N-[1-[5-fluoro-2-[[1-(2-hydroxyethyl)pyrazol-4-yl]amino]pyrimidin-4-yl]-3-methyl-indol-5-yl]but-2-enamide]	0.1 to 100 nM	0.1 to 100 nM	0.1 to 100 nM	0.1 to 100 nM	0.1 to 100 nM
C=CC(=O)Nc1ccc2c(c1)c(C)cn2-c1nc(Nc2cnsc2)ncc1F [Example 148, N-[1-[5-fluoro-2-(isothiazol-4-ylamino)pyrimidin-4-yl]-3-methyl-indol-5-yl]prop-2-enamide]	0.1 to 100 nM	0.1 to 100 nM	0.1 to 100 nM	0.1 to 100 nM	0.1 to 100 nM
C=CC(=O)Nc1ccc2c(c1)c(C)cn2-c1nc(Nc2cn(C[C@@H](C)O)nc2C)ncc1F [Example 214, N-[1-[5-fluoro-2-[[1-[(2R)-2-hydroxypropyl]-3-methyl-pyrazol-4-yl]amino]pyrimidin-4-yl]-3-methyl-indol-5-yl]prop-2-enamide]	0.1 to 100 nM	0.1 to 100 nM	0.1 to 100 nM	0.1 to 100 nM	0.1 to 100 nM
Cc1cnc(Nc2cnn(CCO)c2)nc1-n1cc(C)c2cc(NC(=O)/C=C/CN(C)C)ccc21 [Example 122, (E)-4-(dimethylamino)-N-[1-[2-[[1-(2-hydroxyethyl)pyrazol-4-yl]amino]-5-methyl-pyrimidin-4-yl]-3-methyl-indol-5-yl]but-2-enamide]	0.1 to 100 nM	0.1 to 100 nM	0.1 to 100 nM	0.1 to 100 nM	0.1 to 100 nM
C=CC(=O)Nc1ccc2c(-c3nc(Nc4cnn(CCO)c4)ncc3C)cn(C)c2c1 [Example 126, N-[3-[2-[[1-(2-hydroxyethyl)pyrazol-4-yl]amino]-5-methyl-pyrimidin-4-yl]-1-methyl-indol-6-yl]prop-2-enamide]	0.1 to 100 nM	0.1 to 100 nM	0.1 to 100 nM	0.1 to 100 nM	0.1 to 100 nM
C=CC(=O)Nc1ccc2c(c1)c(C)cn2-c1nc(Nc2cnn(C)c2C)ncc1C [Example 147, N-[1-[2-[(1,5-dimethylpyrazol-4-yl)amino]-5-methyl-pyrimidin-4-yl]-3-methyl-indol-5-yl]prop-2-enamide]	0.1 to 100 nM	0.1 to 100 nM	0.1 to 100 nM	0.1 to 100 nM	0.1 to 100 nM
C=CC(=O)Nc1ccc2c(c1)c(C)cn2-c1nc(Nc2cccnc2C)ncc1F [Example 153, N-[1-[5-fluoro-2-[(2-methyl-3-pyridyl)amino]pyrimidin-4-yl]-3-methyl-indol-5-yl]prop-2-enamide]	100 to 250 nM	0.1 to 100 nM	0.1 to 100 nM	250 to 1000 nM	0.1 to 100 nM
Cc1cnc(Nc2ccnn2C)nc1-n1cc(C)c2cc(NC(=O)/C=C/CN(C)C)ccc21 [Example 107, (E)-4-(dimethylamino)-N-[3-methyl-1-[5-methyl-2-[(2-methylpyrazol-3-yl)amino]pyrimidin-4-yl]indol-5-yl]but-2-enamide]	100 to 250 nM	0.1 to 100 nM	0.1 to 100 nM	250 to 1000 nM	0.1 to 100 nM
C=CC(=O)Nc1ccc2c(-c3ccnc(Nc4cc(C)n(C)n4)n3)cn(C)c2c1 [Example 103, N-[3-[2-[(1,5-dimethylpyrazol-3-yl)amino]pyrimidin-4-yl]-1-methyl-indol-6-yl]prop-2-enamide]	100 to 250 nM	100 to 250 nM	0.1 to 100 nM	250 to 1000 nM	0.1 to 100 nM
C=CC(=O)Nc1ccc2c(c1)c(C)cn2-c1nc(Nc2ccn(C3COC3)n2)ncc1C [Example 120, N-[3-methyl-1-[5-methyl-2-[[1-(oxetan-3-yl)pyrazol-3-yl]amino]pyrimidin-4-yl]indol-5-yl]prop-2-enamide]	0.1 to 100 nM	0.1 to 100 nM	0.1 to 100 nM	0.1 to 100 nM	0.1 to 100 nM

Continued, values first:

Kd [1]	Kd [2]	Kd [3]	Kd [4]	IC50 [5]	SMILES
0.1 to 100 nM	0.1 to 100 nM	0.1 to 100 nM	0.1 to 100 nM	0.1 to 100 nM	C=CC(=O)Nc1ccc2c(c1)c(C)cn2-c1nc(Nc2cn(CC)nc2C)ncc1F [Example 156, N-[1-[2-[(1-ethyl-3-methyl-pyrazol-4-yl)amino]-5-fluoro-pyrimidin-4-yl]-3-methyl-indol-5-yl]prop-2-enamide]
0.1 to 100 nM	0.1 to 100 nM	0.1 to 100 nM	100 to 250 nM	0.1 to 100 nM	C=CC(=O)Nc1ccc2c(c1)c(C)cn2-c1nc(Nc2cn(C(F)F)nc2C)ncc1F [Example 149, N-[1-[2-[[1-(difluoromethyl)-3-methyl-pyrazol-4-yl]amino]-5-fluoro-pyrimidin-4-yl]-3-methyl-indol-5-yl]prop-2-enamide]
0.1 to 100 nM	0.1 to 100 nM	0.1 to 100 nM	0.1 to 100 nM	0.1 to 100 nM	C=CC(=O)Nc1ccc2c(c1)c(C)cn2-c1nc(Nc2cn(CC(F)F)nc2C)ncc1F [Example 164, N-[1-[2-[[1-(2,2-difluoroethyl)-3-methyl-pyrazol-4-yl]amino]-5-fluoro-pyrimidin-4-yl]-3-methyl-indol-5-yl]prop-2-enamide]
0.1 to 100 nM	0.1 to 100 nM	0.1 to 100 nM	0.1 to 100 nM	0.1 to 100 nM	C=CC(=O)Nc1ccc2c(c1)c(C)cn2-c1nc(Nc2ccn(CCO)n2)ncc1C [Example 100, N-[1-[2-[[1-(2-hydroxyethyl)pyrazol-3-yl]amino]-5-methyl-pyrimidin-4-yl]-3-methyl-indol-5-yl]prop-2-enamide]
0.1 to 100 nM	0.1 to 100 nM	0.1 to 100 nM	250 to 1000 nM	0.1 to 100 nM	C=CC(=O)Nc1ccc2c(-c3nc(Nc4cn(C)nc4C)ncc3F)cn(C)c2c1 [Example 154, N-[3-[2-[(1,3-dimethylpyrazol-4-yl)amino]-5-fluoro-pyrimidin-4-yl]-1-methyl-indol-6-yl]prop-2-enamide]
0.1 to 100 nM	0.1 to 100 nM	0.1 to 100 nM	0.1 to 100 nM	0.1 to 100 nM	C=CC(=O)Nc1ccc2c(c1)c(C)cn2-c1nc(Nc2cnn(CC3(O)CC3)c2)ncc1F [Example 175, N-[1-[5-fluoro-2-[[1-[(1-hydroxycyclopropyl)methyl]pyrazol-4-yl]amino]pyrimidin-4-yl]-3-methyl-indol-5-yl]prop-2-enamide]
0.1 to 100 nM	0.1 to 100 nM	0.1 to 100 nM	0.1 to 100 nM	0.1 to 100 nM	C=CC(=O)Nc1ccc2c(c1)c(C)cn2-c1nc(Nc2cnn(CC(C)O)c2)ncc1F (stereo not drawn) [Example 158, N-[1-[5-fluoro-2-[[1-(2-hydroxypropyl)pyrazol-4-yl]amino]pyrimidin-4-yl]-3-methyl-indol-5-yl]prop-2-enamide]
